Assay results taken from patent US6383479B1, “Neutrophil-activating factor” (Novartis AG, priority 1987, dated 2002).

Experiments:
human neutrophils [1] = assay: superoxide formation (SOD-sensitive cytochrome c reduction) by human neutrophils; type: cell-based; details: per 10^6 cells
Protocol: a) Superoxide production: neutrophils (3×10^6 /ml) are preincubated at 37° with or without 1 μm PAF for 2 minutes and then stimulated with increasing amounts of NAF. Recordings of cytochrome c reduction following NAF addition are shown.
Superoxide formation is measured at 37° as the SOD sensitive reduction of ferricytochrome c (M. Markert et al., Methods Enzymol. 132 [1984] 267). The assay mixture (800 μl) consists of 0.75×10^6 cells/ml PBS-BSA containing 85 μM cytochrome c. Absorbance changes are recorded in a Hewlett-Packard 8451A diode array spectrophotometer equipped with a thermostated seven-place cuvette exchanger. Table 4 documents the capacity of NAF to elicit the respiratory burst in human neutrophils: […]

neutrophils = assay: sequential/repeated stimulation of neutrophils (desensitization, superoxide formation); type: cell-based, human
Protocol: a) Neutrophils (3×10^6 /ml) are preincubated at 37° C. for 5 min. and then stimulated with different agonists as indicated (arrows).
b) Sequential or repeated stimulation with NAF and C5a. Conditions as in a).
Arrows show addition of agonists as indicated. The concentration of C5a is 0.5 nM in a) and 0.2 nM in b), that of fMLP is 20 nM in both experiments. The agonists are added in 50 μl of PBS-BSA.
On the other hand, when agonists acting on different receptors are used in sequence.(e.g. fMLP followed by C5a) these stimulations yield a normal response. Experiments of this type are therefore used to find out whether NAF acts by its own receptor or via a receptor also used by other agonists.

[2] = isoelectric point (chromatofocusing); type: physicochemical
Protocol: A sample of 4 ml of NAF partially purified by phosphocellulose chromatography (Example 4) is dialyzed against start buffer consisting of 25 mM ethanolamine-HCl, pH 9.4 and 0.1% polyethylene glycol 6000, and loaded onto a PBE 94 column (0.7×19 cm, Pharmacia) equilibrated with the same buffer. The column is then eluted with 200 ml of polybuffer 96-HCl (diluted 1:10 with water), pH 7.0, containing 0.1% polyethylene glycol 6000. 10-minute fractions are collected at a flow rate of 10-14 ml/h and assayed for NAF activity. Most of the activity elutes in the region of pH 8.5 to pH 8.8 (FIG. 9).

human neutrophils [3] = assay: stimulus-dependent exocytosis of granule contents by human neutrophils; type: cell-based
Protocol: Neutrophils (5×10^6/ml) suspended in PBS/BSA are preincubated with or without cytochalasin B (5 μg/ml) at 37° for 5 min.
Granule release is then initiated by adding the stimulus, e.g. NAF or a standard stimulus. The reaction is stopped 15 min later by rapid cooling in ice followed by centrifugation to sediment the cells. Vitamin B12-binding protein, β-glucuronidase and lactate dehydrogenase are determined in the cell-free media and cell pellets, and the release of these constituents is calculated in percent of the total cellular content (B. Dewalt and M. Baggiolini, Methods Enzymol. 132 [1986] 267).
Natural and recombinant NAF are tested in parallel on human neutrophils. They elicit virtually identical changes in cytosolic free Ca^2+, yielding a maximum rise at a concentration as low as 3 nM (FIG. 15). A nearly identical concentration-dependent respiratory burst response is obtained with both preparations in the range of 1 to 30 nM as assessed by chemiluminescence. The equivalence between natural and recombinant NAF is also reflected by chemotaxis and exocytosis measurements. Chemotactic migration is observed between 0.1 and 10 nM with a maximum effect at 1 nM. (Table 6). With either peptide a significant release of vitamin B12-binding protein from the specific granules at 0.3 nM and of beta-glucuronidase from the azurophil granules at 1 nM is observed.

human neutrophils [4] = assay: hydrogen peroxide formation by chemiluminescence in human neutrophils; type: cell-based
Protocol: b) H2O2-dependent chemiluminescence: the progress curves following stimulation with partially purified NAF and approximately equiactive concentrations of C5a and fMLP are shown on the left. The initial phase of the response is detailed on the right. The stimulants are added in 50 μl of PBS-BSA.
Lower graphs: respiratory burst induced by natural (left) and recombinant (right) NAF. Neutrophils (10^6 cells/ml) are stimulated with 3, 10 and 30 nM NAF at time zero and hydrogen peroxide production is measured by chemiluminescence (M. P. Wymann et al., Anal. Biochem. 165 [1987] 371-378).
The properties of NAF, fMLP and C5a as stimuli of the respiratory burst are compared by assessing the production of superoxide or hydrogen peroxide by the stimulated cells. Superoxide formation is determined as described in Example 13. Hydrogen peroxide formation is determined by chemiluminescence (M. P. Wymann et al., Anal. Biochem. 165 [1987] 371-378). The assay mixture consisting of PBS-BSA containing 0.1 M sodium azide, 0.01 mM luminol, 9 U/ml horseradish peroxidase and 10^6 neutrophils is preincubated for 10 min at 37° and the reaction is started by adding the stimulus via a microsyringe.

[5] = NAF 50 μl, with CB (cytochalasin B 5 μg/ml)
[6] = NAF 100 μl, with CB (cytochalasin B 5 μg/ml)

## neutrophil-activating factor [NAF]
Human neutrophils [1]; NAF 5 μl
  Cytochrome c reduction, Maximum rate: 0.81 nmol/min
  Cytochrome c reduction, Total in 3 min: 0.89 nmol
Human neutrophils [1]; NAF 10 μl
  Cytochrome c reduction, Maximum rate: 1.45 ± 0.63 nmol/min
  Cytochrome c reduction, Total in 3 min: 1.45 ± 0.50 nmol
Human neutrophils [1]; NAF 20 μl
  Cytochrome c reduction, Maximum rate: 2.32 ± 0.56 nmol/min
  Cytochrome c reduction, Total in 3 min: 2.16 ± 0.39 nmol
Human neutrophils [1]; NAF 30 μl
  Cytochrome c reduction, Maximum rate: 2.51 ± 0.50 nmol/min
  Cytochrome c reduction, Total in 3 min: 2.30 ± 0.55 nmol
Human neutrophils [1]; NAF 50 μl
  Cytochrome c reduction, Maximum rate: 3.51 ± 0.69 nmol/min
  Cytochrome c reduction, Total in 3 min: 3.10 ± 0.55 nmol
Human neutrophils [1]; NAF 100 μl
  Cytochrome c reduction, Maximum rate: 3.69 nmol/min
  Cytochrome c reduction, Total in 3 min: 3.39 nmol
neutrophils
  cross-desensitization in combinations of NAF with PAF, fMLP and leukotriene B4: fail to show cross-desensitization
neutrophils; superoxide formation
  cross-desensitization between NAF and C5a: no cross-desensitization
  desensitization to a second stimulation with the same agonist: complete desensitization
[2]
  isoelectric point: approximately 8.6
Human neutrophils [3]; [5]
  Percent release of Vit. B12-binding protein: 25.6 ± 3.4%
  Percent release of lactate dehydrogenase: 6.7 ± 1.6%
  Percent release of β-glucuronidase: 7.9 ± 2.0%
Human neutrophils [3]; NAF 50 μl, without CB
  Percent release of Vit. B12-binding protein: 12.9 ± 1.6%
  Percent release of lactate dehydrogenase: 5.8 ± 0.7%
  Percent release of β-glucuronidase: 2.7 ± 1.3%
Human neutrophils [3]; [6]
  Percent release of Vit. B12-binding protein: 26.8 ± 4.9%
  Percent release of lactate dehydrogenase: 7.3 ± 2.1%
  Percent release of β-glucuronidase: 8.5 ± 1.7%
Human neutrophils [3]; NAF 100 μl, without CB
  Percent release of Vit. B12-binding protein: 13.9 ± 2.1%
  Percent release of lactate dehydrogenase: 6.8 ± 2.2%
  Percent release of β-glucuronidase: 3.0 ± 1.3%
Human neutrophils [4]
  time between stimulus addition and onset of H2O2 production: about 2 sec
